# Where two headings read alike, the source gives them in different places.
# Key:
# CB2 receptor [1] = target: T1, CB2 receptor (Homo sapiens, UniProt P34972); experiment: CB2 competitive radioligand binding assay ([3H] WIN-55,212-2); set-up: expressed in transfected cells; host or cells: CHO-K1 cells
# Protocol: (§1) J Med Chem. 41(26): 5177-5187 (1998); and Munro S., et al. Molecular characterization of a peripheral receptor for cannabinoids. Nature 365:61-65 (1993).
# CB2 Radioligand Binding Assay: A compound of the invention (0.05 μM in 1% DMSO) was incubated with CHO-K1 cells expressing human recombinant CB2 receptor in buffer (20 mM HEPES, pH 7.0, 0.5% BSA) for 90 minutes at 37° C. in the presence of 2.4 nM [H^3] WIN-55,212-2 (CB2 radioligand). % Inhibition was determined as a function of radioligand binding to the […].
# CB1 receptor [2] = target: T2, CB1 receptor (Homo sapiens, UniProt P21554); experiment: cell-based; set-up: host or cells: PathHunter cell lines
# T2 sequence (P21554 whole entry, the tested form may be a part): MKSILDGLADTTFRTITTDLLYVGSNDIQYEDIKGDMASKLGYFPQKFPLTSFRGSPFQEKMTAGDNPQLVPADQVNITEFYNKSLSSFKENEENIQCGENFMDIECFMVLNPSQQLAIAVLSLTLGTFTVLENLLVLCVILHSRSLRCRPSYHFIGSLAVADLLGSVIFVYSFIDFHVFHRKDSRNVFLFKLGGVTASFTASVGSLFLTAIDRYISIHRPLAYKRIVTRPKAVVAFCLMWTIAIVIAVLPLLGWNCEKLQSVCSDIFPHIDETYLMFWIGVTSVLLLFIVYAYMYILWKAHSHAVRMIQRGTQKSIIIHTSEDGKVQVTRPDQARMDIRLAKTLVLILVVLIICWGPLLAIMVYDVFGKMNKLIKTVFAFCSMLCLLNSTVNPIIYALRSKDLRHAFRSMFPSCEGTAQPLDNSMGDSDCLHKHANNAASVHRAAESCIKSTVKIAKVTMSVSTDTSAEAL
# Protocol: (§2) The PathHunter® β-Arrestin assay monitors the activation of a GPCR in a homogenous, non-imaging assay format using a technology developed by DiscoverX called Enzyme Fragment Complementation (EFC) with β-galactosidase (3-Gal) as the functional reporter. […] EA is fused to β-Arrestin and PK is fused to the GPCR of interest.
# (§3) PathHunter cell lines were expanded from freezer stocks according to standard procedures. Cells were seeded in a total volume of 20 μL into white walled, 384-well microplates and incubated at 37° C. for the appropriate time prior to testing. For agonist activity determination, cells were incubated with sample to induce response. Intermediate dilution of sample stocks was performed to generate 5× sample in assay buffer. 5 μL of 5× sample was added to cells and incubated at 37° C. or room temperature for 90 to 180 minutes. Vehicle concentration was 1%. Assay signal was generated through a single addition of 12.5 or 15 μL (50% v/v) of PathHunter Detection reagent cocktail, followed by a one hour incubation at room temperature. Microplates were read following signal generation with a PerkinElmer Envision™ instrument for chemiluminescent signal detection. Compound activity was analyzed using CBIS data analysis suite (ChemInnovation, CA). For agonist assays, percentage activity was calculated using the following formula: % Activity=100%×(mean RLU of test sample− mean RLU of vehicle control)/(mean MAX control ligand− mean RLU of vehicle control).
# CB2 receptor [3] = target: T1, CB2 receptor; experiment: cell-based; set-up: host or cells: cAMP Hunter cell lines; conditions: PathHunter agonist mode; read-out: CB2 Activity (β-Arrestin)
# Protocol: as §2, §3
# CB2 receptor [4] = target: T1, CB2 receptor; experiment: cAMP Assay #2: Hit Hunter cAMP assay, Gi-coupled agonist activity, CB2; assay type: cell-based; set-up: host or cells: cAMP Hunter cell lines; conditions: for CB2 fold selectivity: CB1 EC50 / CB2 EC50
# Protocol: (§4) Compounds of the invention were assayed in the Hit Hunter® cAMP assay to determine Gi-coupled agonist activity on the CB1 and CB2 receptors, the results of which are provided in Table 5.
# (§5) The Hit Hunter® cAMP assay monitors the activation of a GPCR via Gi and […] secondary messenger signaling in a homogenous, non-imaging assay format using a technology developed by DiscoverX called Enzyme Fragment Complementation (EFC) with β-galactosidase (β-Gal) as the functional reporter. […] ED is fused to cAMP and in the assay competes with cAMP generated by cells for binding to a cAMP-specific antibody. Active β-Gal is formed by complementation of exogenous EA to any unbound ED cAMP. Active enzymes can then convert a chemiluminescent substrate, generating an output signal detectable on a standard microplate reader.
# (§6) cAMP Hunter cell lines were expanded from freezer stocks according to standard procedures. Cells were seeded in a total volume of 20 μL into white walled, 384-well microplates and incubated at 37° C. for the appropriate time prior to testing. cAMP modulation was determined using the DiscoverX Hit Hunter cAMP XS+ assay. For Gi agonist activity determination, cells were incubated with sample in the presence of EC80 forskolin to induce response (20 μM and 25 μM in the CB1 and CB2 assays, respectively). Media was aspirated from cells and replaced with 15 μL 2:1 HBSS/10 mM HEPES:cAMP XS+Ab reagent.
# (§7) Intermediate dilution of sample stocks was performed to generate 4× sample in assay buffer. 5 μL of 4× compound was added to cells and incubated at 37° C. or room temperature for 30 or 60 minutes. Final vehicle concentration was 1%. Assay signal was generated through incubation with 20 μL cAMP XS+ED/CL lysis cocktail for one hour at room temperature. Microplates were read following signal generation with a PerkinElmer Envision™ instrument for chemiluminescent signal detection. Compound activity was analyzed using CBIS data analysis suite (Chem Innovation, CA). For agonist assays, percentage activity was calculated using the following formula: % Activity=100%×(1−(mean RLU of test sample−mean RLU of Max control ligand)/(mean RLU of vehicle control−mean RLU of Max control ligand). Control ligand was the non-selective CB1/CB2 agonist CP55,940.
# CB1 receptor [5] = target: T2, CB1 receptor; experiment: cAMP Assay #2: Hit Hunter cAMP assay, Gi-coupled agonist activity, CB1; assay type: cell-based; set-up: host or cells: PathHunter cell lines
# Protocol: as §4, §5, §6, §7
# CB1 receptor [6] = target: T2, CB1 receptor; experiment: CB1 competitive radioligand binding assay ([3H] SR141716A); set-up: expressed in transfected cells; host or cells: Chem-1 cells
# Protocol: as §1
# CB1 Radioligand Binding Assay: A compound of the invention (0.5 μM in 1% DMSO) was incubated with Chem-1 cells expressing human recombinant CB1 receptor in buffer (50 mM HEPES, pH 7.4, 5 mM MgCl2, 1 mM CaCl2, 0.2% BSA) for 90 minutes at 37° C. in the presence of 2.0 nM [H^3] SR141716A (CB1 radioligand). % Inhibition was determined as a function of radioligand binding to the CB1 receptor.
# [7] = PathHunter agonist mode, read-out: CB1 Activity (β-Arrestin)
# [8] = Hit Hunter cAMP, 25 μM forskolin, control ligand CP55,940, read-out: CB2, EC50
# [9] = Hit Hunter cAMP, 20 μM forskolin, control ligand CP55,940, read-out: CB1, EC50
# T1 sequence (P34972 whole entry): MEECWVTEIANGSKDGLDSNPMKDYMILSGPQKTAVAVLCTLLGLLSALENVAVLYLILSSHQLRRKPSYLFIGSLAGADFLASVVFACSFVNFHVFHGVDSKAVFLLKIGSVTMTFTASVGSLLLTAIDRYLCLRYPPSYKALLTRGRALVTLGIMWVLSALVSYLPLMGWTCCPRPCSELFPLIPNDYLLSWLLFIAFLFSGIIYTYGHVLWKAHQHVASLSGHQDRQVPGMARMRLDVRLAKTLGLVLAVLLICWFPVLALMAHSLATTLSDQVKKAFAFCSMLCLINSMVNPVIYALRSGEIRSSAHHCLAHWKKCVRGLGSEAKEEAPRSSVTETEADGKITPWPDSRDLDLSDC
Structure (SMILES),"inhibition at 0.05 µM (CB2 receptor [1]; 0.05 μM compound, 2.4 nM [3H] WIN-55,212-2, 90 min 37° C.) [%]","Fold Selectivity (CB1/CB2) (CB2 receptor [1]; Table 2, ratio of Ki CB1/CB2)","Ki (CB2 receptor [1]; Table 2, read-out: CB2 Binding Ki) [nM]",EC50 (CB1 receptor [2]; [7]) [nM],EC50 (CB2 receptor [3]) [nM],EC50 (CB2 receptor [4]; [8]) [nM],CB2 fold selectivity (CB2 receptor [4]; Hit Hunter cAMP),EC50 (CB1 receptor [5]; [9]) [nM],"inhibition at 0.5 µM (CB1 receptor [6]; 0.5 μM compound, 2.0 nM [3H] SR141716A, 90 min 37° C.) [%]","Ki (CB1 receptor [6]; Table 2, read-out: CB1 Binding Ki) [nM]","Fold Selectivity (CB1/CB2) (CB2 receptor [1]; Table 3, ratio of Ki CB1/CB2)","Ki (CB2 receptor [1]; Table 3, read-out: Ki CB2) [nM]","Ki (CB1 receptor [6]; Table 3, read-out: Ki CB1) [nM]",Ki (CB2 receptor [1]) [nM],EC50 (CB1 receptor [2]) [nM],EC50 (CB2 receptor [4]) [nM],EC50 (CB1 receptor [5]) [nM],Ki (CB1 receptor [6]) [nM]
"CCCCCCC(C)(C)c1cc(O)c2c(c1)OC(C)(C)[C@@H]1CC=C(C(=O)NC3CCCCC3)C[C@@H]21 [Compound 16, (6aR,10aR)—N-Cyclohexyl-1-hydroxy-6,6-dimethyl-3-(2-methyloctan-2-yl)-6a,7,10,10a-tetrahydro-6H-benzo[c]chromene-9-carboxamide]",57,4,26,> 3000,5,2.7,>1000,> 3000,84,94,–,–,–,–,–,–,–,–
CCCCCCC(C)(C)c1cc(O)c2c(c1)OC(C)(C)[C@@H]1CC=C(C(=O)NOCCO)C[C@@H]21 [Compound 41],–,–,–,37.8,1.8,1.5,4.3,6.3,–,–,6.4,4.3,27.4,–,–,–,–,–
"CCCCCCC(C)(C)c1cc(O)c2c(c1)OC(C)(C)[C@@H]1CC=C(C(=O)N[C@H]3C[C@H](O)C3)C[C@@H]21 [Compound 45, (6aR,10aR)-1-hydroxy-N-((1R,3R)-3-hydroxycyclobutyl)-6,6-dimethyl-3-(2-methyloctan-2-yl)-6a,7,10,10a-tetrahydro-6H-benzo[c]chromene-9-carboxamide]",–,–,–,–,6,–,22.9,–,–,–,14.3,–,–,10.1,4980,12,274,144
"CCCCCCC(C)(C)c1cc(O)c2c(c1)OC(C)(C)[C@@H]1CC=C(C(=O)N[C@H]3C[C@@H](O)C3)C[C@@H]21 [Compound 46, (6aR,10aR)-1-hydroxy-N-((1 S,3S)-3-hydroxycyclobutyl)-6,6-dimethyl-3-(2-methyloctan-2-yl)-6a,7,10,10a-tetrahydro-6H-benzo[c]chromene-9-carboxamide]",–,–,–,–,3.6,–,31.4,–,–,–,3.9,–,–,22.9,6000,8.4,263,90.3
"CCCCCCC(C)(C)c1cc(O)c2c(c1)OC(C)(C)[C@@H]1CC=C(C(=O)NN3CCCCC3)C[C@@H]21 [Compound 48, (6aR,10aR)-1-hydroxy-6,6-dimethyl-3-(2-methyloctan-2-yl)-N-(piperidin-1-yl)-6a,7,10,10a-tetrahydro-6H-benzo[c]chromene-9-carboxamide]",–,–,–,–,4.4,–,>428,–,–,–,25.3,–,–,9.2,> 3000,7,> 3000,233
"CC(C)(CCCCCCO)c1cc(O)c2c(c1)OC(C)(C)[C@@H]1CC=C(C(=O)O)C[C@@H]21 [Compound 57, (6aR,10aR)-1-hydroxy-3-(8-hydroxy-2-methyloctan-2-yl)-6,6-dimethyl-6a,7,10,10a-tetrahydro-6H-benzo[c]chromene-9-carboxylic acid]",–,–,–,290,22,–,2.3,–,–,–,2.9,–,–,56.3,–,39.7,92.1,162
"CCCCCCC(C)(C)c1cc(O)c2c(c1)OC(C)(C)[C@@H]1CC=C(C(=O)NC(C)(C)C)C[C@@H]21 [Compound 95, (6aR,10aR)-N-(tert-butyl)-1-hydroxy-6,6-dimethyl-3-(2-methyloctan-2-yl)-6a,7,10,10a-tetrahydro-6H-benzo[c]chromene-9-carboxamide]",–,–,–,–,1.3,–,11.0,–,–,–,9.7,–,–,3.2,23.9,1.2,13.2,31.1
"CCCCCCC(C)(C)c1cc(O)c2c(c1)OC(C)(C)[C@@H]1CC=C(C(=O)NO)C[C@@H]21 [Compound 105, (6aR,10aR)-N,1-dihydroxy-6,6-dimethyl-3-(2-methyloctan-2-yl)-6a,7,10,10a-tetrahydro-6H-benzo[c]chromene-9-carboxamide]",–,–,–,–,3.7,–,1.0,–,–,–,0.4,–,–,24.1,75.6,11.2,11.4,9.2
"CCCCCCC(C)(C)c1cc(O)c2c(c1)OC(C)(C)[C@@H]1CC=C(C#N)C[C@@H]21 [Compound 112, (6aR,10aR)-1-hydroxy-6,6-dimethyl-3-(2-methyloctan-2-yl)-6a,7,10,10a-tetrahydro-6H-benzo[c]chromene-9-carbonitrile]",–,–,–,2,1.4,–,–,–,–,–,1.4,–,–,0.7,–,–,–,1

# — US20210284621A1 (priority 2018, published 2021)
